Experiment [1] addresses T1, HHAT (Homo sapiens, UniProt Q5VTY9).
T1 construct: FLAG (C); His (C); made in house; host or cells: HEK293a cells stably overexpressing HHAT-FLAG-His
Kind of experiment: Pilot HTS Acyl-cLIP screen of FDA-approved drugs, purified HHAT, stopped-assay conditions. In kind it is biochemical. The note with it: compounds screened at 25 μM.

Experiment [2] concerns the target T1, HHAT. Kind of experiment: HHAT Acyl-cLIP assay with HHAT-P100(sol): SHH-FAM palmitoylation, dose-response and kinetics. In kind it is biochemical. On the procedure:
Recombinant Protein Production
HHAT-enriched solubilised membrane fractions (HHAT-P100(sol)) were prepared as previously described,[4] with the following modifications. HEK293a cells overexpressing HHAT-FLAG-His (HEK293a HHAT+) were cultured, harvested by trypsinisation, and washed with PBS as previously described.[9] Cells (5 × 106) in DMEM/FBS (35 mL) were inoculated on sterilised CultiSphere S microcarriers (100 mg) in a spinner flask (Corning), and incubated as previously described. After 24 h, DMEM/FBS (15 mL) was added and cells incubated with stirring (~30 rpm), with addition on DMEM/FBS (50 mL) after 24 h. DMEM/FBS (50 mL) was refreshed every subsequent 24 h. After 5 days, microcarriers were collected by centrifugation (1,000 g, 1 min), and washed with PBS (25 mL). Microcarriers were digested with trypsin (3 mL) with visual monitoring by microscopy (5-15 min, see Supplementary Figure S11D) to release HEK293a HHAT+ cells, which were washed with DMEM/FBS (25 mL) and PBS […]
(25 mL). […]
25 kPSI through a Cell Disruptor (Constant Systems). Lysates were cleared by centrifugation (20,000 g, 30 min, 4 °C), and the supernatant passed through a HisTrap™ Fast Flow column (GE Healthcare). Bound protein was eluted with elution buffer (50 mM TRIS, 150 mM NaCl, 300 mM imidazole, pH 8.8), and concentrated to 2 mL in a Protein Concentrator PES (Pierce, 10,000 MWCO). The sample was cleared by centrifugation (20,000 g, 5 min, 4 °C) and purified using a S75 16/600 gel filtration column (Generon), eluting with storage buffer (50 mM TRIS, 150 mM NaCl, pH 7.4). Fractions containing protein were pooled, concentrated (5 mg/mL APT1, 4 mg/mL APT2), flash frozen, and stored at −80 °C.
Fluorescence measurements were recorded on an EnVision Xcite 2104 (PerkinElmer).
FAM-labelled peptides were measured using a FITC FP D505fp mirror module, FITC FP 480 nm excitation filter (30 nm bandwidth), FITC FP P-pol 535 nm first emission filter (40 nm bandwidth), and FITC FP S-pol 535 nm second emission filter (40 nm bandwidth). Continuous reaction monitoring was conducted using measurement height = 9.52 mm, 8 flashes/well, PMT gain = 319, and G-factor = 1.09. For the HHAT pilot screen, stopped-assay measurements were performed using measurement height = 9.52 mm, 60 flashes/well, PMT gain = 319, and G-factor = 1.09. The NMT acyl-cLIP assay continuous reaction monitoring was conducted using measurement height = 6.6 mm, 1 flash/well, PMT gain = 163, and G- […]
TAMRA-labelled peptides were measured using a BODIPY TMR FP D555fp mirror module, BODIPY TMR FP 531 nm excitation filter (25 nm bandwidth), BODIPY TMR FP P-pol 579 nm first emission filter (25 nm bandwidth), and BODIPY TMR FP S-pol 579 nm second emission filter (25 nm bandwidth). Continuous reaction monitoring was conducted using measurement height = 6.5 mm, 200 flashes/well, PMT gain = 255, and G-factor = 1.6.
HHAT-P100(sol) (450 µg/mL) in solubilisation buffer (20 mM HEPES, 350 mM NaCl, 1% (w/v) DDM, 5% glycerol, pH 7.3) was diluted 1:10 in SHH-FAM (2 µM) in reaction buffer (100 mM MES, 20 mM NaCl, 1 mM DTT, 1 mM TCEP, 0.1% (w/v) BSA, pH 6.5). The HHAT/SHH-FAM solution (12 µL/well) was dispensed into a black 384-well plate (Corning, 3575). The reaction was initiated by addition of Pal-CoA (7.5 µM) in reaction buffer (8 µL/well), and fluorescence readings collected every 1 min for 1 h. Under stopped-assay conditions, the reaction was halted by addition of SHH (220 µM) in reaction buffer (2 µL).
Detergents (2 mM) or BSA (0.15 mM) were tested for generation of polarised fluorescence from Pal-SHH-FAM or SHH-FAM (0.1 µM) in 100 mM MES, 20 mM NaCl. Detergent and BSA titrations were performed using 2-fold serial dilutions.
Small molecule inhibitors in DMSO were dispensed using an Echo 550 liquid handler (Labcyte), with a DMSO backfill volume of 50 nL. Substrate competitors SHH, SHH(FL), or Pal-SHH were serially diluted in reaction buffer (1:3) prior to addition to the HHAT/SHH-FAM […]
solution. […]

Experiment [3] has as its system SHH acylation in HEK-293 SHH+ cells. The experiment can be described thus: In-cell YnC15 tagging assay of SHH acylation. The note with it: inhibitors 20 µM, YnC15, AzTB ligation. Type of experiment: cell-based, human. On the procedure:
In-Cell YnC15 Tagging Assay
HEK293a SHH+ cells (500,000 cells/well) were plated in a 6-well plate in DMEM/FBS (3 mL/well) and cultured for 24 h. Cells were treated with inhibitors in DMSO (20 µM), two RUSKI-201 (20 µM) blind-positive controls and two DMSO (7.5 µL) blind-negative controls.
After 1 h, YnC15 (3 µL, 20 mM in DMSO) was added and cells cultured for a further 6 h before washing with PBS. Cells were lysed in PBS with Triton X-100 (1%), SDS (0.1% (w/v)) and Complete EDTA-free protease inhibitor cocktail (Roche Diagnostics). Cells were removed from plates by scraping, and lysates centrifuged (13,000 g, 10 min, 4 °C). The protein concentration of the supernatant was estimated using the DC Protein Assay (Bio-Rad) and adjusted to 1 mg/mL with lysis buffer. AzTB (1 µL, 10 mM in DMSO), CuSO4 (2 µL, 50 mM in H2O), TCEP (2 µL, 50 mM in H2O) and TBTA (1 µL, 10 mM in DMSO) were combined, and this mixture (6 µL) added to the lysate (100 µL). Samples were shaken at RT for 1 h, then proteins precipitated by addition of methanol (200 µL), chloroform (50 µL) and water (100 µL) followed by centrifugation (13,000 g, 5 min, 4 °C). The upper aqueous layer was removed without disturbing the protein layer at the interphase, methanol (0.5 mL) was added, and the precipitated proteins isolated by centrifugation (13,000 g, 10 min, 4 °C). Protein pellets were […]
washed twice with methanol, briefly air-dried and re-dissolved in PBS containing SDS (0.2% (w/v)) and DTT (0.1 mM) using sonication to a final concentration of 1 mg/mL.
10 µg of protein were separated on a 15% SDS-polyacrylamide gel. Fluorescence was recorded using a Typhoon imager (GE Healthcare; excitation laser: 532 nm, emission filter:
Proteins were transferred to a nitrocellulose membrane by wet transfer (100 V, 1 h), and membranes blocked with BSA (5% (w/v)) in TBS-T (50 mM TRIS, 150 mM NaCl, 0.1% Tween-20, pH 7.5) for 1 h at RT, followed by overnight incubation at 4°C with rabbit α-SHH (Santa Cruz Biotechnology; sc-9024; 1:200) in TBS-T with BSA (0.5% (w/v)) or mouse α-Tubulin (Santa Cruz Biotechnology; sc-8035; 1:200) in TBS-T with BSA (0.5% (w/v)). Membranes were washed with TBS-T (4 × 5 min) and incubated at RT for 1 h with HRP-conjugated Goat-α-mouse IgG (Advansta; 1:10,000) in TBS-T with BSA (0.5% (w/v)) or Goat-α-rabbit IgG (Advansta; 1:10,000) in TBS-T with BSA (0.5% (w/v)). Membranes were washed with TBS-T (4 × 5 min) and developed with Luminata Crescendo Western HRP substrate (Millipore) on a Fujifilm LAS-3000 imager. YnC15-labelled SHH band intensities were quantified using ImageJ 1.50i (National Institute of Health, USA).
HEK293a SHH+ cells (5,000 cells/well) were plated in a 96-well plate in DMEM/FBS […]
(50 µL/well) and cultured for 24 h. […]

Experiment [4] is described as follows: Detergent/BSA titration for polarised emission of Pal-SHH-FAM (fluorescence anisotropy). The note with it: BSA titration with Pal-SHH-FAM; read-out: polarisation EC50.
Where [5] appears, read: HHAT, SHH-FAM substrate competition, read-out: IC50 as competitive inhibitor of SHH-FAM palmitoylation.
Setting [6] is: HHAT-P100(sol) activity, SHH-FAM palmitoylation, 25 min reaction, four parameter fit, read-out: IC50 of HHAT inhibition.

Broadly, the inhibition is how much of the control response was suppressed. Read a low inhibition as a response near the control. One may read the Km as the concentration of substrate that gives half-maximal velocity. As a reminder, the IC50 is the concentration needed to halve the response being measured. A word on the EC50: it is the concentration giving half of the maximal effect.

Structures can show the parent of a compound that is named as a salt. Where two headings read alike, the source gives them in different places. Where a SMILES comes first, the peptide text is derived from it. Where no end group is shown, it is not given here.

T1 sequence (Q5VTY9 whole entry): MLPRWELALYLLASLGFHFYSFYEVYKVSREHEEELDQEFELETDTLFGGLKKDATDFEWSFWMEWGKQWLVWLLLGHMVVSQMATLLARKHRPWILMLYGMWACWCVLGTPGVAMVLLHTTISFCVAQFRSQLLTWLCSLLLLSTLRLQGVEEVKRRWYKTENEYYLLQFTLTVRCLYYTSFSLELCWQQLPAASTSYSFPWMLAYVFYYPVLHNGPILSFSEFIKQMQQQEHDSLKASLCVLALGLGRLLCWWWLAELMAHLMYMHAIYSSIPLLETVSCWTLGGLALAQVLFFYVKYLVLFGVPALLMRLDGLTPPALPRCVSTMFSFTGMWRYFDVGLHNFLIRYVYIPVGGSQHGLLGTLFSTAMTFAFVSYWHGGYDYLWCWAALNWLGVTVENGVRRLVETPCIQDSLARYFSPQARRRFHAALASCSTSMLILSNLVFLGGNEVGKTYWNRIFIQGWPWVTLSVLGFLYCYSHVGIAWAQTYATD

For the molecule `Cc1cc(C2CCCCC2)n(O)c(=O)c1` [Ciclopirox], the inhibition at 25 µM on HHAT [1] is more than 80%.

`Oc1ccc(C2CNCCc3c2cc(O)c(O)c3Cl)cc1` (centres unmarked) [Fenoldopam Mesylate] returned an inhibition at 25 µM against HHAT [1] of more than 80%.

With `CCCCCCCCCCCCCCCC(=O)SCCNC(=O)CCNC(=O)[C@H](O)C(C)(C)COP(=O)(O)OP(=O)(O)OC[C@H]1O[C@@H](n2cnc3c(N)ncnc32)[C@H](O)[C@@H]1OP(=O)(O)O` [Pal-CoA, palmitoyl-CoA], the Vmax on HHAT [2] (Pal-CoA titration, SHH-FAM palmitoylation) came out at 0.081 pmol min^–1; at HHAT [2] (Pal-CoA titration, initial velocity conditions), 0.081 pmol/min. Besides, the Michaelis constant (Km) at HHAT [2] (Pal-CoA titration, SHH-FAM palmitoylation, initial velocity conditions, read-out: apparent KM) came out at 170 nM.

`CCCCCCCCCCCCCCCC(=O)N[C@@H](CS)C(=O)NCC(=O)N1CCC[C@H]1C(=O)NCC(=O)N[C@@H](CCCNC(=N)N)C(=O)NCC(=O)N[C@@H](Cc1ccccc1)C(=O)NCC(=O)N[C@@H](CCCCN)C(=O)N[C@@H](CCCNC(=N)N)C(=O)N[C@@H](CCCCN)C(N)=O` [Pal-SHH] (HELM PEPTIDE1{[CCCCCCCCCCCCCCCC(=O)[*:2]].C.G.P.G.R.G.F.G.K.R.K.[am]}$$$$V2.0): on HHAT [2] (setting [5]), the half-maximal inhibitory concentration (IC50) came out at 100 nM.

Turning to `CCC(C)CNCC(=O)N1CCc2sccc2C1COc1cccc(C)c1` (centres unmarked) [RUSKI-43], the concentration for half-maximal inhibition (IC50) at HHAT [2] (setting [6]) was 17000 nM.

`CCC(C)CNCC(=O)N1CCc2sccc2C1c1cccc(C)n1` (centres unmarked) [RUSKI-201] yielded an inhibition at 25 µM against HHAT [1] of more than 80%. Moreover, on HHAT [2] (setting [6]), the half-inhibitory concentration (IC50) was determined as 2000 nM. In experiment [3] (IGF), the “inhibition of SHH acylation (YnC15 tagging) by in-gel fluorescence” value was “showed inhibition of SHH acylation”. Also, the “inhibition of SHH acylation assessed by increased molecular weight in anti-SHH blotting” value in experiment [3] (α-SHH western blot) is reported as “displayed inhibition”.

The molecule `O=C1Cc2cc(CCN3CCN(c4nsc5ccccc45)CC3)c(Cl)cc2N1` [Ziprasidone·HCl] registered an inhibition at 25 µM against HHAT [1] of more than 80%.

As for CGPGRGFGKRK-NH2 [SHH], the IC50 at HHAT [2] (setting [5]) was 370 nM.

As for RUSKI-41, the IC50 on HHAT [2] (setting [6]) came to 5700 nM.

Take RUSKI-101: the concentration for half-maximal inhibition (IC50) on HHAT [2] (setting [6]) was found to be 2100 nM.

Consider “SHH(FL): N-terminal signalling domain of the mature full-length SHH protein (residues 24–193), expressed in E. coli without lipid modification”, for which the IC50 in the experiment with HHAT [2] (setting [5]) amounted to 440 nM.

Consider bovine serum albumin [BSA], for which the concentration giving a half-maximal response (EC50) in experiment [4] stood at 490 nM.

The record behind these values is paper PMC6855259, “Acylation-coupled lipophilic induction of polarisation (Acyl-cLIP): a universal assay for lipid transferase and hydrolase enzymes” (Chemical Science, 2019).
